Data from patent US20190216751A1, “Compositions and Methods for the Treatment and Prevention of Cancer” (California State University Northridge, priority 2017, published 2019).

Legend:
[1] = tested on: eIF5A localization in 67NR cells; assay: Immunofluorescence, subcellular localization of total eIF5A; type: cell-based, mouse; conditions: 1 and 10 μM GC7, 48 hours
Method: Thus, we interrogated the subcellular localization of eIF5A protein using immunofluorescent staining under control as well as 1 and 10 μM GC7 treatment conditions in triple negative breast cancer lines (FIGS. 12A and 12B).
Cells were plated at 1e4 cells/mL at 4 mL in a 6-well plate containing a sterile glass coverslip and allowed to attach overnight. Cells were then treated with appropriate inhibitors at indicated concentrations and time-points. Cells were first fixed using 4% paraformaldehyde for 20 minutes. Cells were then subjected to Triton-X to permeabilize the cells before treatment with specific antibodies in 2% BSA in PBS. After primary antibody incubation for 90 minutes, cells were washed with PBS three times before incubating with secondary antibodies in 2% BSA in PBS for 1 hour. Cells were again washed with PBS three times before set overnight staining with DAPI. Cells were then imaged using a Leica DMI6000 inverted microscope at 100× magnification.

4T1 cells = assay: Cell number by phase-contrast images, with TGFβ; type: cell-based, mouse; conditions: 10 μM each drug, 96-hour time point
Method: (§1) Next, the inventors investigated whether blockade of HDAC6 and DHPS activity could further suppress TGFβ-induced EMT either independently or simultaneously. To test this, 4T1 cells were treated with either TubA at 10 μM, GC7 at 10 μM or both for 48 hours. At this time point, protein lysates were collected as well as phase-contrast images (FIGS. 6B and 6C). At that same time point, the media was changed and the cells were re-treated with the same drugs at the same concentrations; however, this time with the addition of TGFβ at 2.5 ng/mL. The inventors collected protein lysates and phase-contrast images just one day post TGFβ treatment, calling this the 72-hour time point (FIGS. 6B and 6C). In addition, the inventors collected mRNA, protein lysates, phase-contrast and immunofluorescences images two days post TGFβ treatment, calling this the 96-hour time point (FIGS. 6A, 6B, 6C and 6D).
Images were taken of cells plated on a 6 well plate with appropriate conditions or treatments for experiment using widefield-brightfield phase contrast microscopy on a Leica DMI6000 B inverted microscope at 20× magnification.

breast cancer cells = assay: GC7 potency after induction of EMT by TGFβ; type: cell-based; conditions: induction of EMT by TGFβ treatment
[2] = tested on: ZEB1 expression in 4T1 cells; assay: qPCR ZEB1 mRNA, TGFβ-induced EMT; type: cell-based, mouse; conditions: for ZEB1 mRNA expression: GC7 10 μM pre-treatment
Source text: The pathway in which the inventors are interested in targeting eIF5A is in the context of TGFβ-induced EMT and TGFβ is a well-characterized inducer of EMT. […] Phase-contrast images are shown to the right of the western blot to indicate a shift in morphology after treatment with TGFβ. […] Since TGFβ can induce PEAK1 upregulation, while in contrast, hypusinated eIF5A promotes PEAK1 translation, the inventors sought to see if TGFβ alone can upregulate hypusinated eIF5A. Post-translational modifications can occur relatively fast. Therefore short-term treatments of TGFβ on 4T1, 67NR and MCF10CA1a cells were performed initially. Protein lysates were collected after 10, 30 and 120 minutes of treatment and immunoblotted for hypusine, total eIF5A and β-actin (FIG. 4B). […] Relative band intensity is graphed to the right of the western blot in which the ratio between hypusine to total eIF5A is compared first between treated samples to control samples then a ratio is calculated comparing each time point relative to 10 minutes as a starting time point of reference. […] The inventors were also interested in what genes were altered at the transcriptional level when dual treating with TGFβ and GC7 at the same time to block EMT. To test for this, 4T1 and MCF10CA1a cells were plated on either plastic or fibronectin extra-cellular matrix (ECM) protein and pre-treated them with GC7 at 10 μM for 48 hours to ensure the eIF5A hypusination pathway is blocked. The inventors then treated with TGFβ at 2.5 ng/mL and collected RNA after 12 or 48 hours. […] Phase contrast images were also taken before RNA collection to show changes in morphology where EMT was either induced or reversed (FIG. 4C). […] Also, with the correct treatment time and conditions, inhibition of hypusination can block TGFβ-induced EMT.
as §1
Cell lines were plated in a 6 well plate at 1e5 cells/mL and left to attach overnight. […]

[3] = tested on: ZEB1 expression in MCF10CA1a cells; assay: qPCR ZEB1 mRNA, TGFβ-induced EMT; type: cell-based, human; conditions: GC7 10 μM pre-treatment, TGFβ 2.5 ng/mL 48 hours, fibronectin
Source text: The pathway in which the inventors are interested in targeting eIF5A is in the context of TGFβ-induced EMT and TGFβ is a well-characterized inducer of EMT. […] Phase-contrast images are shown to the right of the western blot to indicate a shift in morphology after treatment with TGFβ. […] Since TGFβ can induce PEAK1 upregulation, while in contrast, hypusinated eIF5A promotes PEAK1 translation, the inventors sought to see if TGFβ alone can upregulate hypusinated eIF5A. Post-translational modifications can occur relatively fast. Therefore short-term treatments of TGFβ on 4T1, 67NR and MCF10CA1a cells were performed initially. Protein lysates were collected after 10, 30 and 120 minutes of treatment and immunoblotted for hypusine, total eIF5A and β-actin (FIG. 4B). […] Relative band intensity is graphed to the right of the western blot in which the ratio between hypusine to total eIF5A is compared first between treated samples to control samples then a ratio is calculated comparing each time point relative to 10 minutes as a starting time point of reference. […] The inventors were also interested in what genes were altered at the transcriptional level when dual treating with TGFβ and GC7 at the same time to block EMT. […]

## N=C(N)NCCCCCCCN.O=S(=O)(O)O [GC7, N1-Guanyl-1,7-diaminoheptane]
[1]
  nuclear depletion of eIF5A: Nuclear depletion of eIF5A was observed
4T1 cells
  cell number: drastic reduction in cell number
Breast cancer cells
  GC7 potency after TGFβ-induced EMT: increases GC7 potency
[2]; 10 μM each drug, re-treated with TGFβ 2.5 ng/mL at 48 hours, 96-hour time point
  TGFβ-induced EMT, ZEB1 mRNA (qPCR): failed to block TGFβ-induced EMT
[2]; TGFβ 2.5 ng/mL 12 hours, fibronectin
  ZEB1 mRNA expression: this effect was blocked on fibronectin
[2]; TGFβ 2.5 ng/mL 12 hours, plastic
  ZEB1 mRNA expression: decreased
[2]; TGFβ 2.5 ng/mL 48 hours
  ZEB1 mRNA expression: This effect was not seen after 48 hours
[3]
  TGFβ-induced EMT (ZEB1 mRNA): this EMT was blocked
